Laboratory results as given in ChEMBL document CHEMBL1268900, “Discovery of 2-aminoimidazopyridine adenosine A(2A) receptor antagonists” (Bioorg Med Chem Lett, 2010).
pKi: −log10 of the molar value.

Assays:
[1] = Selectivity for human adenosine A2A receptor over adenosine A1 receptor
[2] = target: Adenosine receptor A2a (Homo sapiens, UniProt P29274); experiment: Displacement of [3H]SCH58261 from human recombinant A2A receptor expressed in HEK293 cells; type: cell-based
[3] = target: Adenosine receptor A2a (Rattus norvegicus, UniProt P30543); experiment: Antagonist activity at rat A2A receptor by cAMP functional assay
[4] = Metabolic stability in human liver microsomes assessed as compound remaining after 30 mins; type: ADME, Microsome; conditions: read-out: Stability
[5] = Metabolic stability in rat liver microsomes assessed as compound remaining after 30 mins; type: ADME, Microsome; conditions: read-out: Stability
[6] = Ratio of drug level in brain to plasma of rat at 30 mg/kg, po after 4 hrs; type: ADME, organism-based; set-up: dose 30 mg/kg, route oral; conditions: read-out: BPR
[7] = Plasma concentration in rat at 30 mg/kg, po after 4 hrs; type: ADME, organism-based; set-up: dose 30 mg/kg, route oral
[8] = Drug level in rat brain at 30 mg/kg, po after 1 hr; type: ADME, organism-based; set-up: dose 30 mg/kg, route oral; conditions: read-out: Drug uptake
[9] = Drug level in rat brain at 30 mg/kg, po after 4 hrs; type: ADME, organism-based; set-up: dose 30 mg/kg, route oral; conditions: read-out: Drug uptake
[10] = Ratio of drug level in brain to plasma of rat at 30 mg/kg, po after 1 hr; type: ADME, organism-based; set-up: dose 30 mg/kg, route oral; conditions: read-out: BPR
[11] = Plasma concentration in rat at 30 mg/kg, po after 1 hr; type: ADME, organism-based; set-up: dose 30 mg/kg, route oral

Sequence of Adenosine receptor A2a (Rattus norvegicus, UniProt P30543) (P30543 whole entry): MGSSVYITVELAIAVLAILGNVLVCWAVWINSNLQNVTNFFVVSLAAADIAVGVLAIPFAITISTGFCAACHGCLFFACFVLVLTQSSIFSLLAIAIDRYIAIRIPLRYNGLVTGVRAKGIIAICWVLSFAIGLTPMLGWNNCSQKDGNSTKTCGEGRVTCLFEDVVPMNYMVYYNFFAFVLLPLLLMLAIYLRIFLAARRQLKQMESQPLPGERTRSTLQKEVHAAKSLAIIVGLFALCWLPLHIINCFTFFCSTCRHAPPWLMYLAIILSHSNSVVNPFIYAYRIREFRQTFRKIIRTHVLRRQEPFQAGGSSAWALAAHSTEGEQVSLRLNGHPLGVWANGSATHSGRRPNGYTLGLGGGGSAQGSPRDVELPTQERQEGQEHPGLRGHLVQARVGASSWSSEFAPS
Sequence of Adenosine receptor A2a (Homo sapiens, UniProt P29274) (P29274 whole entry): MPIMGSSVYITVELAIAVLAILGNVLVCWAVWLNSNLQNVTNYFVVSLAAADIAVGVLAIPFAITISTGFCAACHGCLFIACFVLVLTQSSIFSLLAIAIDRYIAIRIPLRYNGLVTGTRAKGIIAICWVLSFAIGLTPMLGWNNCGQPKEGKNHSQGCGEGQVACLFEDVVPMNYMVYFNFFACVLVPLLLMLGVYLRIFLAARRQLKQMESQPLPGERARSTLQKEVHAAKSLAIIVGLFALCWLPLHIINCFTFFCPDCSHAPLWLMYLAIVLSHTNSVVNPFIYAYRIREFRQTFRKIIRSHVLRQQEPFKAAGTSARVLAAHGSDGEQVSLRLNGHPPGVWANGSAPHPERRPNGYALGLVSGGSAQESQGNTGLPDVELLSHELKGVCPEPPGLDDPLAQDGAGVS

COCCCn1c(NC(=O)c2cccc(C#N)c2)nc2ccc(C(=O)N3CCCCC3)cc21
Ratio [1]: 131
pKi [2]: 7.77
pKi [3]: 7.07
remaining at 0.5 h [4]: 19%
remaining at 0.5 h [5]: 12%

CCOCCn1c(NC(=O)c2cccc(C#N)c2)nc2cc(C(=O)N3CCOCC3)cnc21
Ratio [1]: 1.8
pKi [2]: 5.48

CC(C)OCCCn1c(NC(=O)c2cccc(C#N)c2)nc2cc(C(=O)N3CCOCC3)cnc21
pKi [2]: < 5.00

COCCCn1c(N)nc2cc(C(=O)NCc3cccc(OC)c3)ccc21
pKi [2]: 5.17

COCCCn1c(NC(=O)c2cccc(C#N)c2)nc2cc(C(=O)NCc3cccc(OC)c3)ccc21
pKi [2]: 7.34

COCCCn1c(NC(=O)c2cccc(C#N)c2)nc2ccc(C(=O)N(C)C(C)C)nc21
Ratio [1]: 88
pKi [2]: 8.60
pKi [3]: 8.37
remaining at 0.5 h [4]: 25%
remaining at 0.5 h [5]: 14%

COCCCn1c(NC(=O)c2cccc(C#N)c2)nc2cc(C(=O)N(C)C)cnc21
pKi [2]: 6.91

N#Cc1cccc(C(=O)Nc2nc3cc(C(=O)N4CCCCC4)cnc3n2CCCO)c1
Ratio [1]: 10
pKi [2]: 7.29

COCCCn1c(NC(=O)c2cccc(OC)c2)nc2cc(C(=O)NCc3cccc(OC)c3)ccc21
pKi [2]: 5.62

CCN(C)C(=O)c1ccc2nc(NC(=O)c3cccc(C#N)c3)n(CCCOC)c2n1
Kp at 4 h [6]: 0.19
concentration at 4 h [7]: 2380 ng/mL
concentration at 1 h [8]: 1050 ng/g
Ratio [1]: 80
pKi [2]: 7.92
pKi [3]: 7.64
concentration at 4 h [9]: 450 ng/g
remaining at 0.5 h [4]: 52%
remaining at 0.5 h [5]: 52%
Kp at 1 h [10]: 0.23
concentration at 1 h [11]: 4630 ng/mL

COCCCn1c(NC(=O)c2cccc(C#N)c2)nc2cc(C(=O)N3CCOCC3)cnc21
Ratio [1]: 61
pKi [2]: 7.04

N#Cc1cccc(C(=O)Nc2nc3cc(C(=O)N4CCCCC4)cnc3n2Cc2ccncc2)c1
Ratio [1]: 39
pKi [2]: 7.41

COCCCn1c(NC(=O)c2cccc(F)c2)nc2cc(C(=O)NCc3cccc(OC)c3)ccc21
pKi [2]: 6.68

COCCCn1c(NC(=O)c2ccccc2Cl)nc2cc(C(=O)NCc3cccc(OC)c3)ccc21
pKi [2]: 5.33

N#Cc1cccc(C(=O)Nc2nc3cc(C(=O)N4CCCCC4)cnc3n2Cc2ccc(F)cc2)c1
Ratio [1]: 3
pKi [2]: 5.59

COCCCn1c(NC(=O)c2cccc(C#N)c2)nc2cc(C(=O)N3CCCCC3)ccc21
pKi [2]: 7.32
remaining at 0.5 h [4]: 67%
remaining at 0.5 h [5]: 16%

CCCCNC(=O)c1cnc2c(c1)nc(NC(=O)c1cccc(C#N)c1)n2CCCOC
pKi [2]: 7.40
remaining at 0.5 h [4]: 95%
remaining at 0.5 h [5]: 73%

COCCCn1c(NC(=O)c2cccc(C#N)c2)nc2cc(C(=O)N(C)C(C)C)cnc21
pKi [2]: 7.89
pKi [3]: 7.92

COCCCn1c(NC(=O)c2cccc(C(F)(F)F)c2)nc2cc(C(=O)NCc3cccc(OC)c3)ccc21
pKi [2]: < 5.00

CCCCCn1c(NC(=O)c2cccc(C#N)c2)nc2cc(C(=O)N3CCCCC3)cnc21
Ratio [1]: 3
pKi [2]: 6.04

COc1cccc(-n2c(NC(=O)c3cccc(C#N)c3)nc3cc(C(=O)N4CCCCC4)cnc32)c1
Ratio [1]: 2
pKi [2]: 6.49

COCCCn1c(NC(=O)c2cccc(C#N)c2)nc2cc(C(=O)N3CCCCC3)cnc21
pKi [2]: 8.02
remaining at 0.5 h [4]: 90%
remaining at 0.5 h [5]: 36%

Cn1c(NC(=O)c2cccc(C#N)c2)nc2cc(C(=O)N3CCCCC3)cnc21
Ratio [1]: 22
pKi [2]: 6.83

CC(=O)NCCn1c(NC(=O)c2cccc(C#N)c2)nc2cc(C(=O)N3CCCCC3)cnc21
Ratio [1]: > 46
pKi [2]: 7.43

COc1ccc(Cn2c(NC(=O)c3cccc(C#N)c3)nc3cc(C(=O)N4CCCCC4)cnc32)cc1
Ratio [1]: 7
pKi [2]: 5.91

N#Cc1cccc(C(=O)Nc2nc3cc(C(=O)N4CCCCC4)cnc3n2Cc2cccnc2)c1
Ratio [1]: 4
pKi [2]: 6.63

CCN(CC)C(=O)c1ccc2nc(NC(=O)c3cccc(C#N)c3)n(CCCOC)c2c1
Ratio [1]: 183
pKi [2]: 8.51
pKi [3]: 7.80
remaining at 0.5 h [4]: 36%
remaining at 0.5 h [5]: 19%

COCCCn1c(NC(=O)c2cccc(C#N)c2)nc2cc(C(N)=O)cnc21
pKi [2]: 5.61

N#Cc1cccc(C(=O)Nc2nc3cc(C(=O)N4CCCCC4)cnc3n2C2CCOCC2)c1
Ratio [1]: 10
pKi [2]: 6.75

CCOCCCn1c(NC(=O)c2cccc(C#N)c2)nc2cc(C(=O)N3CCOCC3)cnc21
Ratio [1]: 9
pKi [2]: 5.96

CCCCNC(=O)c1ccc2c(c1)nc(NC(=O)c1cccc(C#N)c1)n2CCCOC
pKi [2]: 7.32
remaining at 0.5 h [4]: 27%
remaining at 0.5 h [5]: 38%

COCCCn1c(NC(=O)c2cccc(Cl)c2)nc2cc(C(=O)NCc3cccc(OC)c3)ccc21
pKi [2]: 6.36

CCN(CC)C(=O)c1cnc2c(c1)nc(NC(=O)c1cccc(C#N)c1)n2CCCOC
pKi [2]: 7.80
pKi [3]: 7.23

COCCCn1c(NC(=O)c2ccc(C#N)cc2)nc2cc(C(=O)NCc3cccc(OC)c3)ccc21
pKi [2]: 5.78

CCN(C)C(=O)c1cnc2c(c1)nc(NC(=O)c1cccc(C#N)c1)n2CCCOC
Kp at 4 h [6]: 0.09
concentration at 4 h [7]: 2290 ng/mL
concentration at 1 h [8]: 480 ng/g
pKi [2]: 7.60
pKi [3]: 7.62
concentration at 4 h [9]: 210 ng/g
Kp at 1 h [10]: 0.11
concentration at 1 h [11]: 4360 ng/mL
